Measured values taken from patent publication US5191079A, “Quinolinecarboxylic acid derivatives” (priority 1990, dated 1993).
Converted amounts (≈) assume the structure as drawn. Where a name gives a salt, the structure may show the parent alone.

Experiments:
Type in all cases: cell-based
[1] = tested on: clinically isolated Enterococcus faecalis; test: In vitro antibacterial activity against clinical isolates, Experiment 2; conditions: for MIC: 25 clinical strains E. faecalis
How it was run: (§1)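 Each compound was brought to a 1000 μg/ml stock with sterilized distilled water, and MICs were measured on sensitivity test agar.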

[2] = tested on: clinically isolated Enterococcus faecium; test: as above; conditions: for MIC / MIC90: 25 clinical strains E. faecium; for MIC90: 90% of strains, read-out: MIC90
How it was run: as §1

[3] = tested on: Enterobacter cloacae 963; test: MIC, Experiment 1; conditions: E. cloacae 963, Gram -, read-out: Min. inhib. concentr. (MIC)
How it was run: (§2)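 Standard solutions of 1000 μg/ml were prepared for each compound. Inhibition was then scored under Japan Society of Chemotherapy conditions. S. pneumoniae used brain heart infusion preculture and horse-blood (5%) heart infusion agar. The remaining species used sensitivity test broth and agar.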

[4] = tested on: Micrococcus luteus ATCC 9341; test: MIC, Experiment 1; conditions: ATCC9341, M. luteus ATCC 9341, Gram +, read-out: Min. inhib. concentr. (MIC)
How it was run: as §2

[5] = tested on: Staphylococcus aureus IID 803; test: MIC, Experiment 1; conditions: IID803, S. aureus IID 803, Gram +, read-out: Min. inhib. concentr. (MIC)
How it was run: (§3)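 Compounds were dissolved in DMSO or sterile water at 5000 μg/ml, then diluted with sterile water to a 1000 μg/ml standard solution. Testing followed the Japan Society of Chemotherapy method. S. aureus and B. cereus were run on sensitivity test agar; pneumococci were run on horse-blood heart infusion agar.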

[6] = tested on: Staphylococcus aureus FDA 209P JC-1; test: MIC, Experiment 1; conditions: FDA209P, S. aureus FDA 209P JC-1, Gram +, read-out: Min. inhib. concentr. (MIC)
How it was run: as §3

[7] = tested on: Streptococcus pyogenes Su; test: MIC, Experiment 1; conditions: S. pyogenes Su, Gram +, agar with 5% defibrinated horse blood, read-out: Min. inhib. concentr. (MIC)
How it was run: (§4)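 Stocks: 5000 μg/ml in DMSO or sterile distilled water; standard: 1000 μg/ml after water dilution. Method: Japan Society of Chemotherapy.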

[8] = tested on: Staphylococcus aureus Cowan I (IID 975); test: MIC, Experiment 1; conditions: IID975, S. aureus Cowan I (IID 975), Gram +, read-out: Min. inhib. concentr. (MIC)
How it was run: as §3

[9] = tested on: Staphylococcus aureus ATCC 9144; test: MIC, Experiment 1; conditions: ATCC9144, S. aureus ATCC 9144, Gram +, read-out: Min. inhib. concentr. (MIC)
How it was run: as §3

[10] = tested on: Streptococcus pyogenes Sv; test: MIC, Experiment 1; conditions: S. pyogenes Sv, Gram +, agar with 5% defibrinated horse blood, read-out: Min. inhib. concentr. (MIC)
How it was run: as §4

[11] = tested on: Bacillus subtilis ATCC 6633; test: MIC, Experiment 1; conditions: ATCC6633, B. subtilis ATCC 6633, Gram +, read-out: Min. inhib. concentr. (MIC)
How it was run: as §4

[12] = tested on: Escherichia coli NIHJ JC-2; test: MIC, Experiment 1; conditions: NIHJJC2, E. coli NIHJ JC-2, Gram -, read-out: Min. inhib. concentr. (MIC)
How it was run: as §2

[13] = tested on: Proteus mirabilis IFO 3849; test: MIC, Experiment 1; conditions: IFO3849, P. mirabilis IFO 3849, Gram -, read-out: Min. inhib. concentr. (MIC)
How it was run: as §2

[14] = tested on: Pseudomonas aeruginosa NCTC 10490; test: MIC, Experiment 1; conditions: NCTC10490, P. aeruginosa NCTC 10490, Gram -, read-out: Min. inhib. concentr. (MIC)
How it was run: as §2

[15] = tested on: Bacillus cereus IAM 1029; test: MIC, Experiment 1; conditions: IAM1029, B. cereus IAM 1029, Gram +, read-out: Min. inhib. concentr. (MIC)
How it was run: as §3

[16] = tested on: Staphylococcus aureus FDA 243; test: MIC, Experiment 1; conditions: FDA243, S. aureus FDA 243, Gram +, read-out: Min. inhib. concentr. (MIC)
How it was run: as §3

[17] = tested on: Acinetobacter calcoaceticus Ac 54; test: MIC, Experiment 1; conditions: AC54, A. calcoaceticus Ac 54, Gram -, read-out: Min. inhib. concentr. (MIC)
How it was run: as §2

[18] = tested on: Streptococcus pneumoniae IID 554; test: MIC, Experiment 1; conditions: IID554, S. pneumoniae IID 554, Gram +, agar with 5% defibrinated horse blood, read-out: Min. inhib. concentr. (MIC)
How it was run: as §3

[19] = tested on: Streptococcus pyogenes Cook; test: MIC, Experiment 1; conditions: S. pyogenes Cook, Gram +, agar with 5% defibrinated horse blood, read-out: Min. inhib. concentr. (MIC)
How it was run: as §4

[20] = tested on: Staphylococcus aureus MS-353; test: MIC, Experiment 1; conditions: MS353, S. aureus MS-353, Gram +, read-out: Min. inhib. concentr. (MIC)
How it was run: as §3

[21] = tested on: Staphylococcus aureus Terajima (IID 670); test: MIC, Experiment 1; conditions: IID670, S. aureus Terajima (IID 670), Gram +, read-out: Min. inhib. concentr. (MIC)
How it was run: as §3

[22] = tested on: Klebsiella pneumoniae PCI-602; test: MIC, Experiment 1; conditions: PCI602, K. pneumoniae PCI-602, Gram -, read-out: Min. inhib. concentr. (MIC)
How it was run: as §2

[23] = tested on: Streptococcus pneumoniae IID 552; test: MIC, Experiment 1; conditions: IID552, S. pneumoniae IID 552, Gram +, agar with 5% defibrinated horse blood, read-out: Min. inhib. concentr. (MIC)
How it was run: as §3

Row | Structure (SMILES) | MIC50 [1] | MIC90 [1] | MIC [1] | MIC50 [2] | MIC [2] | MIC90 [2] | MIC [3] | MIC [4] | MIC [5] | MIC [6] | MIC [7] | MIC [8] | MIC [9] | MIC [10] | MIC [11] | MIC [12] | MIC [13] | MIC [14] | MIC [15] | MIC [16] | further results
1 | CCOCC1CN(c2c(F)cc3c(=O)c(C(=O)O)c4scc5n4c3c2N(C)C5)CCO1 (stereo not drawn) [Compound (Q), 9,1-(Methylimino)methano-7-fluoro-8-(2-ethoxymethylmorpholino)-5-oxo-5H-thiazolo[3,2-a]quinoline-4-carboxylic acid] | 0.39 µg/mL (≈ 0.872 µM) | 6.25 µg/mL (≈ 14 µM) | 0.05 to 6.25 µg/mL (≈ 0.112 to 14 µM) | 3.13 µg/mL (≈ 6.99 µM) | 0.2 to 25 µg/mL (≈ 0.447 to 55.9 µM) | 12.5 µg/mL (≈ 27.9 µM) | 1.56 µg/mL (≈ 3.49 µM) | 0.39 µg/mL (≈ 0.872 µM) | 0.05 µg/mL (≈ 0.112 µM) | 0.1 µg/mL (≈ 0.223 µM) | 0.2 µg/mL (≈ 0.447 µM) | 0.05 µg/mL (≈ 0.112 µM) | 0.025 µg/mL (≈ 0.0559 µM) | 0.39 µg/mL (≈ 0.872 µM) | 0.05 µg/mL (≈ 0.112 µM) | 0.78 µg/mL (≈ 1.74 µM) | 1.56 µg/mL (≈ 3.49 µM) | 1.56 µg/mL (≈ 3.49 µM) | 0.1 µg/mL (≈ 0.223 µM) | 0.05 µg/mL (≈ 0.112 µM) | MIC [17]: 0.05 µg/mL (≈ 0.112 µM); MIC [18]: 0.39 µg/mL (≈ 0.872 µM); MIC [19]: 0.2 µg/mL (≈ 0.447 µM); MIC [20]: 0.1 µg/mL (≈ 0.223 µM); MIC [21]: 0.1 µg/mL (≈ 0.223 µM); MIC [22]: 0.2 µg/mL (≈ 0.447 µM); MIC [23]: 0.39 µg/mL (≈ 0.872 µM)
2 | CN1CCN(c2c(F)cc3c(=O)c(C(=O)O)c4scc5n4c3c2OC5)CC1 [Compound (Y), 9,1-Epoxymethano-7-fluoro-8-(4-methyl-1-piperazinyl)-5-oxo-5H-thiazolo[3,2-a]quinoline-4-carboxylic acid hydrochloride, reference compound] | 0.39 µg/mL | 6.25 µg/mL | 0.2 to 6.25 µg/mL | 3.13 µg/mL | 0.39 to 12.5 µg/mL | 6.52 µg/mL | 0.1 µg/mL | 1.56 µg/mL | 0.2 µg/mL | 0.2 µg/mL | 0.1 µg/mL | 0.1 µg/mL | 0.05 µg/mL | 0.2 µg/mL | 0.1 µg/mL | 0.1 µg/mL | 0.2 µg/mL | 0.78 µg/mL | 0.39 µg/mL | 0.05 µg/mL | MIC [17]: 0.2 µg/mL; MIC [18]: 0.2 µg/mL; MIC [19]: 0.1 µg/mL; MIC [20]: 0.1 µg/mL; MIC [21]: 0.1 µg/mL; MIC [22]: 0.025 µg/mL; MIC [23]: 0.1 µg/mL
